The subject of one data set is Klebsiella pneumoniae. As to the kind of experiment: Anti-infectious activity: protection of mice inoculated with Klebsiella pneumoniae. In kind it is in vivo. Conditions: for Protection (%) / Survival at day 10 of infection No/total: 100 μg i.v. at day -1; for Protection (%): i.m. infection with 1.5 × 10^4 viable organisms, difference between percentages of survivors in treated and control group; for Survival at day 10 of infection No/total: infection by the intramuscular route with 1.5 × 10^4 viable organisms; for % protection: difference of percentages of survivors, treated vs control group.

In another data set the test system is rabbits. The conditions noted are these: doses as high as 5 mg/kg of body weight.
In the next data set the test system is adrenalectomized mice. The conditions noted are these: 100 μg injected intravenously into five adrenalectomized mice.
The conditions of data set [1]: concentration as high as 100 μg/ml.
Where [2] appears, read: 100 μg i.v. 24 H before infection, infection 3.10^4 K.p. i.m., 24 mice at day 0.
[3] abbreviates: 100 μg i.v. 24 H before infection, infection 4.10^3 K.p. i.v., 24 mice at day 0 (8 for glyceryl-mycolate).

“1-O(L-Ala-D-isoAsn-L-Ala)-glycerol-3-mycolate”: in the data set with Klebsiella pneumoniae, the “Protection (%)” value is listed as 37% and the “Survival at day 10 of infection No/total” value is listed as 16/32.
With “1-O(L-alanyl-D-isoglutaminyl-L-alanyl)glycerol-3-mycolate”, in the data set on rabbits, the “hyperthermizing (pyrogenic) effect” value is on record as “no hyperthermizing effect”. For the same compound, the “death of adrenalectomized mice” value in the data set with adrenalectomized mice is reported as “did not cause death of any of them”. Further, in the data set on Klebsiella pneumoniae (setting [2]), the “Number of mice day 3” value was found to be 23, the “Number of mice day 5” value turned out to be 20 and the “Number of mice day 10” value is 17. The “% protection” value in the data set with Klebsiella pneumoniae (100 μg i.v. 24 H before infection, infection 3.10^4 K.p. i.m.) stood at 37%. Further, in the data set on Klebsiella pneumoniae (setting [3]), the “Number of mice day 3” value was found to be 21, the “Number of mice day 5” value is listed as 21 and the “Number of mice day 10” value is 21. In addition, the “% protection” value in the data set on Klebsiella pneumoniae (100 μg i.v. 24 H before infection, infection 4.10^3 K.p. i.v.) was determined as 79%. For the same compound, in the data set on Klebsiella pneumoniae, the “Protection (%)” value stood at 70% and the “Survival at day 10 of infection No/total” value is listed as 31/40. Further, the Limulus test result in data set [1] is “negative”.
In the case of “1-O-(D-isoGln-L-Ala)-glycerol-3-mycolate hydrochloride”, in the data set on Klebsiella pneumoniae, the “Protection (%)” value came out at 47% and the “Survival at day 10 of infection No/total” value is 28/49.
The corresponding values for “1-O-(L-Ala-D-Gln-L-Ala)-glycerol-3-mycolate” are 12% and 8/32.
The like results for “1-O-(L-Ala-D-isoGln-L-Ala)-glycerol-3-corynomycolate” were, in that order, 28% and 11/32.
The like results for “1-O-(L-alanyl)-glycerol-3-mycolate hydrochloride [1-O--(L--Ala)--glycerol-3-mycolate]” were, in that order, 35% and 16/40.
As for “1-O-(L-alanyl-L-isoglutaminyl-L-alanyl)-glycerol-3-mycolate hydrochloride”, in the data set on Klebsiella pneumoniae, the “Protection (%)” value is 12% and the “Survival at day 10 of infection No/total” value is 7/32.
The corresponding values for “1-O-(β-Ala-D-isoGln-L-Ala)-glycerol-3-mycolate hydrochloride” are 25% and 12/32.
Turning to `CCCCCCCCCCCCCCCCCC(=O)OCC(COC(=O)[C@H](C)NC(=O)CC[C@@H](NC(=O)[C@H](C)N)C(N)=O)OC(=O)CCCCCCCCCCCCCCCCC.Cl` (stereo partly drawn) [1-O-(L-Ala-D-isoGln-L-Ala)-glycerol-2,3-distearate hydrochloride], in the data set on Klebsiella pneumoniae, the “Protection (%)” value is on record as 12% and the “Survival at day 10 of infection No/total” value is reported as 5/24.
The corresponding values for `CCCCCCCCCCCCCCCCCC(=O)OCC(O)COC(=O)[C@H](C)NC(=O)CC[C@@H](NC(=O)[C@H](C)N)C(N)=O.Cl` (stereo partly drawn) [1-O-(L-Ala-D-isoGln-L-Ala)-glycerol-3-stearate hydrochloride] are 8% and 4/24.
On to `CCCCCCCCCCOC(=O)C(C)NC(=O)CCC(NC(=O)C(C)N)C(N)=O.Cl` [DP--L--Ala--decyl ester, L-Ala-D-isoGln-L-Ala-n-decylester hydrochloride], for which, in the data set with Klebsiella pneumoniae, the “Protection (%)” value is listed as 0% and the “Survival at day 10 of infection No/total” value was 1/24.
The corresponding values for `CCCCCCCCCCCCCCCOC(=O)[C@H](C)NC(=O)CC[C@@H](NC(=O)[C@H](C)N)C(N)=O.Cl` [DP--L--Ala--pentadecylester, L-Ala-D-isoGln-L-Alan-n-pentadecylester hydrochloride] are 4% and 4/32.
On to “glycerol-3-mycolate [Glyceryl-mycolate, reference compound]”, for which, in the data set with Klebsiella pneumoniae (mouse, in vivo, iv), the “Number of mice day 3” value amounted to 1, the “Number of mice day 5” value is recorded as 1, the “Number of mice day 10” value turned out to be 1 and the “anti-infectious activity (in words)” value is “devoid of significant activity”.

Values taken from patent US4335111A, “Compounds associating peptidyl of aminoacyl residues to lipophilic groups and pharmaceutical compositions containing said new compounds” (priority 1978, dated 1982).
